# Measurements published in the supplement of paper PMC10307832.
# Tests used:
# Assay in all cases: relative viability (nuclei count vs DMSO), 5 days (fraction); higher = more cells survive
# CX-5461 + Olaparib = compound: Cc1cnc(CNC(=O)c2c(=O)c3ccc(N4CCCN(C)CC4)nc3n3c2sc2ccccc23)cn1 [CX-5461] + O=C(c1cc(Cc2n[nH]c(=O)c3ccccc23)ccc1F)N1CCN(C(=O)C2CC2)CC1 [Olaparib] (partner 8 µM)
# Procedure, shortened: (§1)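 The day after seeding in 1536-well plates, lung cancer cell lines were treated by pin tool with a single drug, or with a fixed anchor-drug dose together with five library-drug doses (not always all listed) in √10 steps. After 5 days, a combined fix-and-stain solution (final 0.05% Triton X-100, 1% formaldehyde, 1 ug/ml Hoechst) was added. Nuclei counted on 4× images gave relative viability as treated counts over vehicle counts, reported as the median of duplicate plates.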
# IMD-0354 + Pictilisib = compound: O=C(Nc1cc(C(F)(F)F)cc(C(F)(F)F)c1)c1cc(Cl)ccc1O [IMD-0354] + CS(=O)(=O)N1CCN(Cc2cc3nc(-c4cccc5[nH]ncc45)nc(N4CCOCC4)c3s2)CC1 [Pictilisib] (partner 1 µM)
# Procedure, shortened: as §1
# IMD-0354 + Vorinostat = compound: O=C(Nc1cc(C(F)(F)F)cc(C(F)(F)F)c1)c1cc(Cl)ccc1O [IMD-0354] + O=C(CCCCCCC(=O)Nc1ccccc1)NO [Vorinostat] (partner 1 µM)
# Procedure, shortened: as §1
# CX-5461 + Pemetrexed = compound: Cc1cnc(CNC(=O)c2c(=O)c3ccc(N4CCCN(C)CC4)nc3n3c2sc2ccccc23)cn1 [CX-5461] + Nc1nc2[nH]cc(CCc3ccc(C(=O)N[C@@H](CCC(=O)O)C(=O)O)cc3)c2c(=O)[nH]1 [Pemetrexed] (partner 0.2 µM)
# Procedure, shortened: as §1
Cell Line,relative viability (CX-5461 + Olaparib; first compound 0.01 µM),relative viability (CX-5461 + Olaparib; first compound 0.03162 µM),relative viability (CX-5461 + Olaparib; first compound 0.1 µM),relative viability (CX-5461 + Olaparib; first compound 1 µM),relative viability (IMD-0354 + Pictilisib; first compound 0.04 µM),relative viability (IMD-0354 + Pictilisib; first compound 0.1265 µM),relative viability (IMD-0354 + Pictilisib; first compound 0.4 µM),relative viability (IMD-0354 + Pictilisib; first compound 1.265 µM),relative viability (IMD-0354 + Pictilisib; first compound 4 µM),relative viability (IMD-0354 + Vorinostat; first compound 0.04 µM),relative viability (IMD-0354 + Vorinostat; first compound 0.1265 µM),relative viability (IMD-0354 + Vorinostat; first compound 0.4 µM),relative viability (IMD-0354 + Vorinostat; first compound 1.265 µM),relative viability (IMD-0354 + Vorinostat; first compound 4 µM),relative viability (CX-5461 + Pemetrexed; first compound 0.01 µM),relative viability (CX-5461 + Pemetrexed; first compound 0.03162 µM),relative viability (CX-5461 + Pemetrexed; first compound 0.1 µM),relative viability (CX-5461 + Pemetrexed; first compound 1 µM),relative viability (CX-5461 + Olaparib; first compound 0.3162 µM),relative viability (CX-5461 + Pemetrexed; first compound 0.3162 µM)
LXF-289,1.03,1.19,1.05,0.953,0.798,0.787,0.524,0.157,0.0919,0.764,0.735,0.612,0.261,0.137,0.867,0.933,0.847,0.574,–,–
NCI-H23,0.376,0.303,0.326,0.287,0.53,0.472,0.306,0.188,0.165,0.664,0.745,0.289,0.172,0.192,0.524,0.862,0.7,0.508,0.333,0.71
NCI-H322M,0.761,0.773,0.691,0.511,0.575,0.519,0.485,0.557,0.446,0.901,0.891,0.48,0.42,0.537,0.568,0.558,0.708,0.62,0.5,0.567
NCI-H358,0.676,0.616,0.575,0.266,0.319,0.31,0.263,0.241,0.22,0.768,0.753,0.323,0.135,0.175,0.159,0.157,0.165,0.156,0.494,0.173
NCI-H441,0.553,0.664,0.478,0.448,0.543,0.521,0.316,0.266,0.183,0.971,0.82,0.416,0.246,0.236,0.261,0.268,0.241,0.226,0.588,0.242
NCI-H460,0.463,0.451,0.286,0.0729,0.438,0.48,0.184,0.0352,0.0702,0.552,1.09,0.445,0.0405,0.0422,0.0543,0.0602,0.0575,0.0755,0.39,0.0623
NCI-H520,0.309,0.315,0.261,0.184,0.372,0.287,0.195,0.17,0.117,0.815,0.709,0.51,0.192,0.248,0.719,0.725,0.708,0.484,0.277,0.608
NCI-H596,0.719,0.715,0.626,0.676,0.383,0.381,0.375,0.372,0.34,0.631,0.694,0.413,0.671,0.461,0.47,0.45,0.523,0.48,1.13,0.504
NCI-H647,0.703,0.721,0.415,0.0876,0.626,0.524,0.184,0.232,0.0513,0.76,0.603,0.3,0.128,0.0744,0.186,0.165,0.176,0.158,0.552,0.194
NCI-H650,0.369,0.399,0.399,0.337,1.09,0.89,0.597,0.415,0.239,0.385,0.445,0.349,0.366,0.133,1.05,0.986,0.879,0.873,0.329,0.943
NCI-H661,0.832,0.754,0.662,0.534,0.416,0.418,0.34,0.264,0.252,0.835,0.714,0.455,0.248,0.2,0.928,0.902,0.855,0.722,0.602,0.802
NCI-H838,0.863,0.846,0.726,0.476,0.559,0.458,0.377,0.247,0.26,0.719,0.766,0.363,0.413,0.324,0.251,0.248,0.244,0.241,0.726,0.232
NCI-H1355,0.758,0.811,0.689,0.714,0.619,0.404,0.327,0.196,0.206,0.75,0.651,0.45,0.433,0.231,1.08,1.08,1.03,0.853,0.736,1.02
NCI-H1395,0.457,0.427,0.443,0.456,0.592,0.589,0.555,0.346,0.348,0.873,0.691,0.616,0.375,0.408,0.835,0.846,0.816,0.488,0.435,0.437
NCI-H1437,0.654,0.643,0.528,0.567,0.492,0.381,0.442,0.153,0.185,0.842,0.81,0.432,0.251,0.263,0.31,0.307,0.268,0.29,0.648,0.307
NCI-H1650,0.718,0.819,0.642,0.257,0.722,0.484,0.434,0.166,0.191,0.541,0.724,0.377,0.199,0.193,0.377,0.477,0.336,0.241,0.756,0.35

Cell Line,relative viability (CX-5461 + Olaparib; first compound 0.01 µM),relative viability (CX-5461 + Olaparib; first compound 0.03162 µM),relative viability (CX-5461 + Olaparib; first compound 0.1 µM),relative viability (CX-5461 + Olaparib; first compound 1 µM),relative viability (IMD-0354 + Pictilisib; first compound 0.04 µM),relative viability (IMD-0354 + Pictilisib; first compound 0.1265 µM),relative viability (IMD-0354 + Pictilisib; first compound 0.4 µM),relative viability (IMD-0354 + Pictilisib; first compound 1.265 µM),relative viability (IMD-0354 + Pictilisib; first compound 4 µM),relative viability (IMD-0354 + Vorinostat; first compound 0.04 µM),relative viability (IMD-0354 + Vorinostat; first compound 0.1265 µM),relative viability (IMD-0354 + Vorinostat; first compound 0.4 µM),relative viability (IMD-0354 + Vorinostat; first compound 1.265 µM),relative viability (IMD-0354 + Vorinostat; first compound 4 µM),relative viability (CX-5461 + Pemetrexed; first compound 0.01 µM),relative viability (CX-5461 + Pemetrexed; first compound 0.03162 µM),relative viability (CX-5461 + Pemetrexed; first compound 0.1 µM),relative viability (CX-5461 + Pemetrexed; first compound 1 µM),relative viability (CX-5461 + Olaparib; first compound 0.3162 µM),relative viability (CX-5461 + Pemetrexed; first compound 0.3162 µM)
NCI-H1651,0.188,0.175,0.191,0.159,0.663,0.461,0.34,0.068,0.0829,0.583,0.602,0.504,0.299,0.168,0.551,0.6,0.546,0.18,0.163,0.623
NCI-H1666,0.708,0.731,0.748,0.676,0.308,0.434,0.295,0.176,0.201,1.03,1.01,0.805,0.908,0.832,0.854,0.848,1.01,0.769,0.696,0.828
NCI-H1734,0.662,0.67,0.633,0.511,0.495,0.51,0.339,0.209,0.143,0.879,0.781,0.454,0.301,0.102,0.404,0.435,0.419,0.432,0.553,0.39
NCI-H1755,0.85,0.929,0.819,0.818,0.562,0.422,0.335,0.232,0.22,0.829,0.781,0.59,0.408,0.225,0.389,0.507,0.427,0.488,0.806,0.399
NCI-H1793,1.09,1,0.879,0.792,0.357,0.319,0.235,0.172,0.206,0.698,0.949,0.461,0.262,0.287,1.17,1.21,0.92,0.802,0.937,0.706
NCI-H1915,0.259,0.255,0.242,0.252,0.68,1.02,0.671,0.33,0.199,0.496,0.509,0.339,0.334,0.115,0.536,0.509,0.487,0.495,0.262,0.496
NCI-H1944,0.409,0.381,0.422,0.395,0.351,0.341,–,0.234,0.151,0.496,0.575,0.384,0.251,0.148,0.561,0.653,0.531,0.271,0.392,0.451
NCI-H1975,0.898,0.822,0.68,0.558,0.329,0.316,0.26,0.155,0.137,0.723,0.685,0.493,0.209,0.248,0.286,0.296,0.274,0.264,0.853,0.331
NCI-H1993,1.19,1.1,1.1,1.01,0.773,0.783,0.706,0.617,0.662,0.75,0.696,0.582,0.313,0.498,0.529,0.67,0.582,0.625,0.976,0.587
NCI-H2009,0.631,0.621,0.616,0.565,1,0.844,0.618,0.114,0.0666,0.705,0.784,0.544,0.253,0.113,1.01,1.07,0.964,0.826,0.672,1.01
NCI-H2023,0.445,0.354,–,0.0686,0.301,0.255,0.202,0.0996,0.0899,0.7,0.738,0.464,0.127,0.104,0.218,0.246,–,0.111,0.248,0.19
NCI-H2085,0.772,0.783,0.845,0.736,0.404,0.422,0.424,0.309,0.303,0.825,0.902,0.617,0.376,0.362,1.03,0.907,0.88,0.799,0.787,0.989
NCI-H2087,0.683,0.68,0.583,0.471,0.711,0.979,0.43,0.198,0.228,0.806,0.837,0.2,0.0721,0.0731,0.689,0.657,0.684,0.654,0.602,0.712
NCI-H2126,0.956,0.974,0.924,0.863,0.527,0.478,0.471,0.353,0.302,0.762,0.826,0.692,0.382,0.289,0.697,0.713,0.687,0.634,0.968,0.672
NCI-H2170,0.613,0.566,0.645,0.609,0.283,0.304,0.308,0.284,0.277,0.859,0.89,0.573,0.74,0.231,0.252,0.257,0.267,0.272,0.599,0.26
NCI-H2228,0.75,0.773,0.518,0.188,0.388,0.367,0.217,0.365,0.247,0.439,0.542,0.434,0.425,0.247,0.355,0.369,0.312,0.182,0.55,0.305
